Legend:
[1] = system: plasma IL-6; experiment: Plasma IL-6, CMT mice treated with AAT 180 mg/kg/day sc; format: in vivo, mouse
From the text: Animals were received at 6 weeks of age and housed under controlled conditions for the duration of the study. The study comprised two groups of 8 transgenic mice (CMT mice) each and one group of 8 age matched wild type (WT) C57B16 mice, serving as positive control. Animals were assigned to the following subcutaneous treatments twice daily at 7:00 AM and 7:00 PM for 2 weeks, starting from 8 weeks and up to 10 weeks of age: • Wild-type (WT, no disease) mice receiving vehicle, 0.9% NaCl (positive control) • CMT1A mice receiving vehicle, 0.9% NaCl (negative control) • CMT1A mice receiving AAT at 90 mg/kg per injection (daily dose 180 mg/kg)
The efficacy parameters included: • neuromuscular performance (rotarod latency to fall and grip strength test), • sciatic nerve electrophysiology (CMAP amplitude and NCV) • cytokine (IL-6 and TNFα), as well as NfL analysis • sciatic nerve histology (number of axons and axonal diameter),
As supportive information for the mode of action of AAT in CMT, plasma concentration of interleukin 6 (IL-6) and TNFα were measured at Day 1 (8 weeks), Day 15 (10 weeks) and Day 30 (12 weeks). At the same timepoints, plasma levels of the biomarker of nerve damage, NfL were determined.

[2] = system: Human Schwann cells; experiment: TNFα-induced Schwann cell activation, target gene expression by qPCR; format: cell-based; settings: AAT 50 μM pre-treatment 24 hours, TNFα 10 ng/mL 24 hours
Experimental: Human Schwann cells (P10351, Innoprot) were seeded in 12 well plates at 120000 cells per well in DMEM. Cells were pre-treated with either buffer (controls) or AAT (50 μM) for 24 hours before stimulation by TNFα (10 ng/mL). The plates were then incubated at 37° C. for 24 hours. The RNA was extracted and selected target gene expression was measured by qPCR.
The genes evaluated for their regulation included the NF-κB early gene response NFKBIA, as well as the TNFα and TNFR1 genes. Expression of the gene coding for the IL-6 pro-inflammatory cytokine was also evaluated.

[3] = target: T1, Recombinant Human TACE/ADAM17 (Homo sapiens, UniProt P78536); experiment: Cell free TACE/ADAM17 activity; format: biochemical; settings: cell-free assay; AAT Sigma Aldrich, batch A6150; read-out: IC50 of TACE activity inhibition
T1 construct: purchased R&D Systems 930-ADB-010
T1 sequence (P78536 215-671 limits assumed): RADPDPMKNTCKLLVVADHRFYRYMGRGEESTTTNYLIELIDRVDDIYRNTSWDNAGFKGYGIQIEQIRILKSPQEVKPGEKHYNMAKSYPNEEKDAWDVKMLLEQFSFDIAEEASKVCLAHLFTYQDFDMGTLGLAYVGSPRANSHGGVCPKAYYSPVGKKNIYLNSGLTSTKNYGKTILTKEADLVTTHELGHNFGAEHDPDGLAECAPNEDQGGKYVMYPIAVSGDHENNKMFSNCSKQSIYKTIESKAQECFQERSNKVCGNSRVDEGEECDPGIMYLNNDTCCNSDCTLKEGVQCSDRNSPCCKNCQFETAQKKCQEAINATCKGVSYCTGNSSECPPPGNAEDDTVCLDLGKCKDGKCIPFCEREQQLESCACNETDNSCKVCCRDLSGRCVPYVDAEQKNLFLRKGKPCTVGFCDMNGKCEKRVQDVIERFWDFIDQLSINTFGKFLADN
Experimental: TACE activity and its inhibition by human AAT (AAT) was performed with Recombinant Human TACE/ADAM17 kit (930-ADB and ES003, R&D Systems) in black 96-well immuno plates (437111, ThermoFisher Scientific). The enzymatic activity of TACE/ADAM17 was measured by mixing 0.005 μg of rhTACE with 10 μM of Mca-PLAQAV-Dpa-RSSSR-NH2 fluorogenic peptide substrate III in assay buffer (25 mM Tris, 2.5 μM ZnCl2, 0.005% Brij-35 (w/v), pH 9.0) to a final volume of 100 μl. AAT (Sigma Aldrich, batch A6150) was resuspended in water (vehicle), control TACE/ADAM17 activity was assessed in presence of the vehicle (amount used for AAT 100 μM). AAT was added at different concentration (0, 6.25, 12.5, 25, 50 and 100 μM) to assess its dose-dependent inhibition of TACE/ADAM17. All conditions were performed in triplicates. Activity was measured as relative fluorescent unit (RFU) in a kinetic mode (9 time points over 5 min) with a SpectraMax iD3 Microplate Reader (low PMT gain, is exposition, top read at 1 mm, wavelength: excitation 320 nm, emission 405 nm). Bar graph as percentage of control activity was obtained by averaging the values obtained over the 5 min for each of the condition.
TACE activity is assessed according to the manufacturer's instruction (Recombinant Human TACE/ADAM17 kit, 930-ADB, R&D Systems) in kinetic mode, without or with different AAT concentration. All conditions were done in triplicates and are shown as mean±SD (FIGS. 5A, 5B and 5C).
ADAM-17 activity and its inhibition by human peptide 8 was measured with Recombinant Human ADAM-17 kit (Recombinant Human TACE/ADAM17 Protein, CF: 930-ADB-010 and Mca-PLAQAV-Dpa-RSSSR-NH2 Fluorogenic Peptide Substrate:ES003; R&D Systems) in black 96-well immunoplates (437111; Thermo Fisher Scientific). The enzymatic activity of ADAM-17 was measured by mixing 0.005 μg of rhADAM-17 with 10 μM of Mca-PLAQAV-Dpa-RSSSR-NH2 fluorogenic peptide substrate III in assay buffer (25 mM Tris, 2.5 μM ZnCl2, 0.005% Brij-35 (w/v), pH 9.0) to a final volume of 100 μL. Peptide 8 (Syngene) was dissolved in DMSO and diluted to the desired concentration in assay buffer. Control ADAM-17 activity was assessed in the presence of the assay buffer. […] All conditions were performed in triplicate. Activity was measured as relative fluorescent units (RFU) in endpoint mode (5 min) with a SpectraMax iD3 Microplate Reader (automatic PMT gain, wavelengths: excitation 320 nm, emission 405 nm).

For alpha1-antitrypsin (AAT) protein, the “Plasma IL-6 (Mean ± SD)” value ([1]; 8 weeks old (baseline, Day 1), CMT1A + AAT) was 133.48 ± 31.45 pg/mL, the “Plasma IL-6 (Mean ± SD)” value ([1]; 10 weeks old (Day 15, after 2 weeks AAT 90 mg/kg sc twice daily)) was 69.78 ± 11.76 pg/mL and the “positive effect on IL-6 plasma levels” value ([1]; 12 weeks of age, after 2-week treatment-free period) was “remained significant”. For the same substance, the “Plasma IL-6 (Mean ± SD)” value ([1]; 12 weeks old (Day 30, after 2-week treatment-free period)) was 120.90 ± 6.47 pg/mL, the “plasma levels of IL-6” value ([1]; CMT mice, AAT 90 mg/kg sc twice a day, P<0.01) was “reduced” and the NF-κb pathway transcripts [2] was “downregulated”. The “expression of genes modulated by TNF-induced oxidative stress response” value [2] was “inhibited” and the IC50 [3] was 15.3 µM.

Source: patent US20260028390A1, “ALPHA1-ANTITRYPSIN FOR USE IN THE TREATMENT OF DISEASES OR DISORDERS OF THE NERVOUS SYSTEM SUCH AS CHRONIC INFLAMMATORY DEMYELINATING POLYNEUROPATHY” (Ageronix SA, priority 2022, published 2026)
